From article PMC8537988, “Re-Use of Caco-2 Monolayers in Permeability Assays—Validation Regarding Cell Monolayer Integrity” (Pharmaceutics, 2021)

System: Caco-2 monolayers
Assay: Apical to basolateral permeability of LY through Caco-2 monolayers (Transwell, 12-well)
Assay type: in vitro ADME, human
Details: for LY Papp, µ directly from Papp / LY Papp, µ best fit of Normal distribution to Papp: single sampling at 60 min
Description: Caco-2 cells culture and monolayers preparation was as described in the reference protocol. Cells were maintained in T75 cm^2 flasks in culture medium (DMEM supplemented with 1% (v/v) NEAA, 10% (v/v) heat-inactivated FBS), in a humidified atmosphere of 5% CO2 at 37 °C. As recommended in the reference protocol, the permeability assays were performed using cells in passages 95–105. The cells were thawed on passage 89 and sub-cultured twice a week at or shortly before 90% confluency by a 1:8 split. To avoid seeding aggregated cells and the formation of multilayers in Transwell™ inserts, the cell clusters were disaggregated into single cells by passing them 3 times through a syringe needle of 23 gauges (BD Falcon) before cell counting. Caco-2 cells were seeded at 2.6 × 10^5 cells/cm^2 on 12-well polycarbonate filter inserts. The culture medium (with 1% (v/v) Pen/Strep) was replaced by fresh medium 6 h following seeding and then every 2–3 days thereafter until transport experiments.
The reference protocol was followed in the permeability assays, with slight modifications as required by the new experimental approach. Manipulation of the cell monolayers was conducted under sterile conditions (in the laminar flow hood or incubator). At the day of the experiments, the culture medium was removed and HBSS (further supplemented with 25 mM HEPES, 0.35 g/L sodium bicarbonate, pH 7.4) pre-warmed to 37 °C was added to the donor (0.5 mL) and receiver (1.5 mL) sides to wash the cell monolayers. The plate containing the inserts was placed (lid-covered) in an incubator without CO2 at 37 °C with an orbital shaker (IKA-Schüttler MTS4, JMGS, Lisboa, Portugal) at 50 rpm for 8 min. The washing step was repeated with new HBSS. The TEER was measured in HBSS at 37 °C using a Millicell® ERS-2 voltmeter equipped with a chopstick electrode pair (Merck, Lisboa, Portugal). A filter insert without cells was included in each set of experiments for correction of the TEER value for the background resistance. The resistance values (Ω cm^2) of the cell monolayers were obtained by subtracting the TEER value from blank inserts and multiplying by the surface area of the insert. All cell monolayers presented TEER values above 200 Ω cm^2. At least one insert of the set was fixed and stained for confocal microscopy analysis (see next section). The remaining ones were used to perform the apical to basolateral permeability assays with the paracellular marker LY. For this, the donor HBSS washing solution was decanted, and the inserts were placed into empty wells of a fresh 12-well plate. The permeability assay was initiated with the addition of 450 µL of the LY solution (20 µM in HBSS at 37 °C) simultaneously to the donor compartments of 3 to 4 insert, from which a 50 µL aliquot was immediately collected and stored for the calculation of the solute concentration in the donor compartment at t = 0. The inserts containing the LY solution were subsequently positioned in a pre-prepared 12-well plate containing HBSS (1.2 mL per well), and the lid-covered plate was placed on the incubator (without CO2, 50 rpm and 37 °C). At the defined sampling times, the plate was positioned into the laminar flow hood and the inserts were transferred into new wells containing fresh HBSS. The high fluorescence quantum yield of LY allows its detection by […], even for the very small amount expected to permeate during short permeation intervals. In this work we used 10, 20, 30, and 60 min or 60 min only as sampling times. At the end of the assay, inserts were transferred to empty wells and 50 µL was taken from the donor compartment for the calculation of the solute mass balance. The remaining solution was decanted, the inserts were placed on new wells containing 1.5 mL of pre-warm HBSS, and 0.5 mL of pre-warmed HBSS was added to each insert for TEER measurements. Some selected monolayers were prepared for microscopy; the remaining were incubated with culture media for re-use, as described below. […]

## Lucifer yellow CH di-potassium salt [LY]
Day 25, re-use, 4th 30 min (16)
  LY QA, µ from Log(QA): 0.38%
Day 25, re-use, all 1st samplings (39)
  LY QA, µ from Log(QA): 0.20%
Day 25, single use & re-use, 1st 10 min (22)
  LY QA, µ from Log(QA): 0.19%
Day 25, single use & re-use, 1st 60 min (29)
  LY QA, µ from Log(QA): 0.18%
Day 25, single use & re-use, 2nd 10 min (22)
  LY QA, µ from Log(QA): 0.25%
Day 25, single use & re-use, 3rd 10 min (22)
  LY QA, µ from Log(QA): 0.25%
Day 25, single use & re-use, 4th 30 min (22)
  LY QA, µ from Log(QA): 0.36%
Day 25, single use & re-use, all 1st samplings (51)
  LY QA, µ from Log(QA): 0.18%
Day 25, single use & re-use, all samplings (117)
  LY QA, µ from Log(QA): 0.23%
Day 25, single use (6)
  LY Papp, µ directly from Papp: 2.1 10^-7 cm/s
Day 25, single use, 1st 10 min (6)
  LY QA, µ from Log(QA): 0.12%
Day 25, single use, 1st 60 min (6)
  LY QA, µ from Log(QA): 0.18%
Day 25, single use, 2nd 10 min (6)
  LY QA, µ from Log(QA): 0.19%
Day 25, single use, 3rd 10 min (6)
  LY QA, µ from Log(QA): 0.20%
Day 25, single use, 4th 30 min (6)
  LY QA, µ from Log(QA): 0.31%
Day 25, single use, all 1st samplings (12)
  LY QA, µ from Log(QA): 0.15%
Day 28, all (24)
  LY Papp, µ best fit of Normal distribution to Papp: 1.8 10^-7 cm/s
  LY Papp, µ directly from Papp: 2.2 10^-7 cm/s
Day 28, batch 1, passage 95, re-use, one-time sampling (60 min)
  QA (%), µ, LY transported during first sampling interval: 0.33%
Day 28, batch 1, passage 95, single use, one-time sampling (60 min)
  QA (%), µ, LY transported during first sampling interval: 0.39%
Day 28, batch 1, passage 98, single use, multi-time sampling (10 min)
  QA (%), µ, LY transported during first sampling interval: 0.09%
Day 28, batch 1, passage 100, re-use, multi-time sampling (10 min)
  QA (%), µ, LY transported during first sampling interval: 0.09%
Day 28, batch 1, passage 104, single use, multi-time sampling (10 min)
  QA (%), µ, LY transported during first sampling interval: 0.23%
Day 28, batch 1, passage 105, re-use, multi-time sampling (10 min)
  QA (%), µ, LY transported during first sampling interval: 0.06%
Day 28, batch 2, passage 95, re-use, one-time sampling (60 min)
  QA (%), µ, LY transported during first sampling interval: 0.11%
Day 28, batch 2, passage 98, single use, one-time sampling (60 min)
  QA (%), µ, LY transported during first sampling interval: 0.26%
Day 28, batch 3, passage 95, re-use, one-time sampling (60 min)
  QA (%), µ, LY transported during first sampling interval: 0.17%
Day 28, re-use (18)
  LY Papp, µ best fit of Normal distribution to Papp: 1.4 10^-7 cm/s
  LY Papp, µ directly from Papp: 1.8 10^-7 cm/s
Day 28, re-use, 1st 10 min (10)
  LY QA, µ from Log(QA): 0.07%
Day 28, re-use, 1st 60 min (18)
  LY QA, µ from Log(QA): 0.16%
Day 28, re-use, 2nd 10 min (10)
  LY QA, µ from Log(QA): 0.08%
Day 28, re-use, 3rd 10 min (8)
  LY QA, µ from Log(QA): 0.11%
Day 28, re-use, 4th 30 min (10)
  LY QA, µ from Log(QA): 0.19%
Day 28, re-use, all 1st samplings (28)
  LY QA, µ from Log(QA): 0.12%
Day 28, single use & re-use, 1st 10 min (16)
  LY QA, µ from Log(QA): 0.09%
Day 28, single use & re-use, 1st 60 min (24)
  LY QA, µ from Log(QA): 0.19%
Day 28, single use & re-use, 2nd 10 min (16)
  LY QA, µ from Log(QA): 0.10%
Day 28, single use & re-use, 3rd 10 min (14)
  LY QA, µ from Log(QA): 0.13%
Day 28, single use & re-use, 4th 30 min (16)
  LY QA, µ from Log(QA): 0.20%
Day 28, single use & re-use, all 1st samplings (40)
  LY QA, µ from Log(QA): 0.14%
Day 28, single use & re-use, all samplings (86)
  LY QA, µ from Log(QA): 0.14%
Day 28, single use (6)
  LY Papp, µ directly from Papp: 3.3 10^-7 cm/s
Day 28, single use, 1st 10 min (6)
  LY QA, µ from Log(QA): 0.15%
Day 28, single use, 1st 60 min (6)
  LY QA, µ from Log(QA): 0.32%
Day 28, single use, 2nd 10 min (6)
  LY QA, µ from Log(QA): 0.14%
Day 28, single use, 3rd 10 min (6)
  LY QA, µ from Log(QA): 0.15%
Day 28, single use, 4th 30 min (6)
  LY QA, µ from Log(QA): 0.24%
Day 28, single use, all 1st samplings (12)
  LY QA, µ from Log(QA): 0.22%
